The SangsterLogP compilation

Experiment: not given

SMILES	logP
CC(=O)Oc1ccccc1C(=O)Nc1ncc([N+](=O)[O-])s1	2.41
O=C(Nc1ncc([N+](=O)[O-])s1)c1c(F)cccc1Cl	3
O=C(Nc1ncc([N+](=O)[O-])s1)c1ccc(F)cc1	3.12

The remaining lines, values ahead:

logP	SMILES
3.57	O=C(Nc1ncc([N+](=O)[O-])s1)c1cc(Cl)ccc1Cl
2.44	O=C(Nc1ncc([N+](=O)[O-])s1)c1c(F)cccc1F
2.71	O=C(Nc1ncc([N+](=O)[O-])s1)c1ccccc1F

Experiment: method code SF-AS, from DOI: 10.1002/(sici)1521-3838(199801)17:01<01::aid-qsar1>3.0.co;2-a

SMILES	logP
O=C(Nc1ncc([N+](=O)[O-])s1)c1cc(Cl)cc(Cl)c1	4.14
O=C(Nc1ncc([N+](=O)[O-])s1)c1ccc(Cl)c(Cl)c1	4.14
O=C(Nc1ncc([N+](=O)[O-])s1)c1cc(Br)ccc1Br	3.75
O=C(Nc1ncc([N+](=O)[O-])s1)c1ccccc1	2.97

Now from value to compound:

logP	SMILES
3.58	O=C(Nc1ncc([N+](=O)[O-])s1)c1ccc(Br)cc1
3.09	O=C(Nc1ncc([N+](=O)[O-])s1)c1ccccc1Br
3.61	O=C(Nc1ncc([N+](=O)[O-])s1)c1cccc(Cl)c1
3.62	O=C(Nc1ncc([N+](=O)[O-])s1)c1ccc(Cl)cc1Cl
3.8	O=C(Nc1ncc([N+](=O)[O-])s1)c1cccc(Br)c1
